From ChEMBL document CHEMBL1131934, “The design of non-peptide human bradykinin B2 receptor antagonists employing the benzodiazepine peptidomimetic scaffold” (Bioorg Med Chem Lett, 1999) come the findings set out here.

For test [1], the target named is T1, B2 bradykinin receptor (Homo sapiens, UniProt P30411).
T1 sequence (P30411 whole entry): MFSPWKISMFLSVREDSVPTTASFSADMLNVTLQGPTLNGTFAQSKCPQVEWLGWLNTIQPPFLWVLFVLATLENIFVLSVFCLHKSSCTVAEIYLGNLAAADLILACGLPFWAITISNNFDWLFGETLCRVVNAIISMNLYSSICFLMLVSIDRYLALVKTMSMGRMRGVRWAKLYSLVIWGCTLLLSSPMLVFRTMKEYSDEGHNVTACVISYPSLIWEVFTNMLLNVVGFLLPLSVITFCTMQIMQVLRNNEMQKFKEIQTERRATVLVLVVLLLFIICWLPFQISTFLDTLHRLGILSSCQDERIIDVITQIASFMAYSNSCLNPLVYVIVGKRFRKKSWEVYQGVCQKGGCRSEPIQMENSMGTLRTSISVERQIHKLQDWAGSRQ
As to the kind of experiment: Binding affinity towards human bradykinin B2 receptor (membranes from Cos-7 cells expressing human B2 receptor) using [3H]-BK as radioligand. In kind it is cell membranes.

Test [2] concerns the target T2, B2 bradykinin receptor (Homo sapiens) (UniProt P30411).
T2 sequence (whole entry): T1 sequence (P30411 whole entry)
As to the kind of experiment: Binding affinity towards human bradykinin B2 receptor (membranes from Cos-7 cells expressing human B2 receptor) using [3H]BK as radioligand. The class given is cell membranes. The following applies: concentration not given here.

What is called Ki is the dissociation constant of the complex between target and ligand, obtained from inhibition or displacement. By inhibition is commonly meant the relative decrease from the control value, in per cent. A lower inhibition goes with a weak effect.

On to `O=C1Nc2ccccc2C(c2ccccc2)=NC1Cc1ccccc1` (centres undefined), for which the Ki in test [1] was over 100 µM. For the molecule `NC(N)=Nc1cccc(CN2C(=O)[C@H](Cc3ccccc3)N=C(c3ccccc3)c3ccccc32)c1`, the Ki in test [1] worked out at 15.8 µM. Turning to `O=C(O)CN1C(=O)C(Cc2ccccc2)N=C(c2ccccc2)c2ccccc21` (centres undefined), the Ki in test [1] is over 100 µM. The same measure, in the same setting: the value for `NC(N)=Nc1cccc(CN2C(=O)C(Cc3ccccc3)N=C(c3ccccc3)c3ccccc32)c1` (centres undefined) was 8.9 µM; that for `N=C(N)Nc1cccc(CN2C(=O)[C@@H](Cc3ccccc3)N=C(c3ccccc3)c3ccccc32)c1` was 11.9 µM; that for `N=C(N)NCCCCN1C(=O)C(Cc2ccccc2)N=C(c2ccccc2)c2ccccc21` (centres undefined) was 21.3 µM. Regarding `NCCCCN1C(=O)C(Cc2ccccc2)N=C(c2ccccc2)c2ccccc21` (centres undefined), in test [2], the inhibition came out at 26%. For `N=C(N)Nc1ccc(N2C(=O)C(Cc3ccccc3)N=C(c3ccccc3)c3ccccc32)cc1` (centres undefined), the affinity in test [1] corresponds to a Ki of 9.2 µM. As to `Nc1cccc(CN2C(=O)C(Cc3ccccc3)N=C(c3ccccc3)c3ccccc32)c1` (centres undefined), the inhibition constant Ki in test [1] is over 100 µM.
